Results: the supplement of paper PMC7840683
± gives the standard deviation of the averaged measurements.

Tested on: HepaRG
Assay: LDH release cytotoxicity, % of total lysis control; higher = more cytotoxic
Conditions: 48 h
Outline: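 On collagen I-coated 96-well plates, single-lot HepaRG cells were exposed for 48 h, in duplicate, to eight-point half-log series of test chemicals beginning at 100 µM. The exposure medium was serum-free induction medium with 0.5% DMSO, and total lysis wells got 0.1% Triton X. Resorufin fluorescence from the CytoTox-ONE reaction, read on a Tecan Safire, reported LDH in 50 µL of spent medium. Percent cytotoxicity came from normalization to on-plate vehicle and total lysis controls, averaged over the duplicates.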

COC(=O)C=C(C)OP(=O)(OC)OC [Mevinphos]
LDH release cytotoxicity (0.03162 µM): -1.49 ± 1.2%
LDH release cytotoxicity (0.1 µM): -1.28 ± 0.3%
LDH release cytotoxicity (0.3162278 µM): -0.769 ± 1.7%
LDH release cytotoxicity (1 µM): -2.52 ± 0.67%
LDH release cytotoxicity (3.16228 µM): -2.16 ± 0.68%
LDH release cytotoxicity (10 µM): -0.179 ± 0.88%
LDH release cytotoxicity (31.6228 µM): -1.3 ± 0.79%
LDH release cytotoxicity (100 µM): 1.1 ± 2%

CN(C)c1ccc(C(=O)c2ccc(N(C)C)cc2)cc1 [Michler's ketone]
LDH release cytotoxicity (0.03162 µM): -2.16 ± 0.051%
LDH release cytotoxicity (0.1 µM): -1.79 ± 0.22%
LDH release cytotoxicity (0.3162278 µM): -1.41 ± 0.071%
LDH release cytotoxicity (1 µM): -2.73 ± 1%
LDH release cytotoxicity (3.16228 µM): 2.66 ± 0.82%
LDH release cytotoxicity (10 µM): 9.37 ± 0.13%
LDH release cytotoxicity (31.6228 µM): 7.06 ± 0.09%
LDH release cytotoxicity (100 µM): 12.9 ± 2%

CC#CC1(O)CCC2C3CCC4=CC(=O)CCC4=C3C(c3ccc(N(C)C)cc3)CC21C (stereo not given) [Mifepristone]
LDH release cytotoxicity (0.03162 µM): -0.549 ± 0.3%
LDH release cytotoxicity (0.1 µM): -1.11 ± 0.089%
LDH release cytotoxicity (0.3162278 µM): -0.633 ± 0.052%
LDH release cytotoxicity (1 µM): 2.47 ± 0.61%
LDH release cytotoxicity (3.16228 µM): 17.4 ± 0.87%
LDH release cytotoxicity (10 µM): 31.5 ± 1.6%
LDH release cytotoxicity (31.6228 µM): 42.2 ± 5.7%
LDH release cytotoxicity (100 µM): 60.9 ± 3%

ClC1(Cl)C2(Cl)C3(Cl)C4(Cl)C(Cl)(Cl)C5(Cl)C3(Cl)C1(Cl)C5(Cl)C24Cl (stereo not given) [Mirex]
LDH release cytotoxicity (0.031623 µM): 1.5 ± 0.54%
LDH release cytotoxicity (0.1 µM): -1.3 ± 1.1%
LDH release cytotoxicity (0.316228 µM): -1.85 ± 0.6%
LDH release cytotoxicity (1 µM): -2.25 ± 0.86%
LDH release cytotoxicity (3.16228 µM): -1.59 ± 0.079%
LDH release cytotoxicity (10 µM): -1.21 ± 0.25%
LDH release cytotoxicity (31.6228 µM): -1.01 ± 0.41%
LDH release cytotoxicity (100 µM): 0.619 ± 0.41%

CCSC(=O)N1CCCCCC1 [Molinate]
LDH release cytotoxicity (0.03162 µM): -2.17 ± 0.39%
LDH release cytotoxicity (0.1 µM): -2.09 ± 0.56%
LDH release cytotoxicity (0.3162278 µM): -1.9 ± 0.36%
LDH release cytotoxicity (1 µM): -2.25 ± 0.77%
LDH release cytotoxicity (3.16228 µM): -1.81 ± 0.052%
LDH release cytotoxicity (10 µM): -1.34 ± 0.51%
LDH release cytotoxicity (31.6228 µM): -0.237 ± 0.64%
LDH release cytotoxicity (100 µM): 1.3 ± 0.16%

O=C(O)c1ccccc1C(=O)OCc1ccccc1 [Monobenzyl phthalate]
LDH release cytotoxicity (0.03162 µM): -6.32 ± 1.2%
LDH release cytotoxicity (0.1 µM): -7.14 ± 0.13%
LDH release cytotoxicity (0.3162278 µM): -7.38 ± 0.78%
LDH release cytotoxicity (1 µM): -7.25 ± 1%
LDH release cytotoxicity (3.16228 µM): -7.03 ± 0.21%
LDH release cytotoxicity (10 µM): -6.25 ± 0.21%
LDH release cytotoxicity (31.6228 µM): -5.79 ± 1.9%
LDH release cytotoxicity (100 µM): -5.73 ± 0.38%

CCCCOC(=O)c1ccccc1C(=O)O [Monobutyl phthalate]
LDH release cytotoxicity (0.03162 µM): -2.25 ± 1%
LDH release cytotoxicity (0.1 µM): -2.21 ± 0.79%
LDH release cytotoxicity (0.3162278 µM): -2.76 ± 0.98%
LDH release cytotoxicity (1 µM): -3.09 ± 0.93%
LDH release cytotoxicity (3.16228 µM): -2.68 ± 1.3%
LDH release cytotoxicity (10 µM): -2.9 ± 1.1%
LDH release cytotoxicity (31.6228 µM): -2.43 ± 1.4%
LDH release cytotoxicity (100 µM): -0.95 ± 1.3%

CNC(=O)C=C(C)OP(=O)(OC)OC [Monocrotophos]
LDH release cytotoxicity (0.03162 µM): -1.04 ± 1%
LDH release cytotoxicity (0.1 µM): -1.87 ± 0.34%
LDH release cytotoxicity (0.3162278 µM): -1.93 ± 1.1%
LDH release cytotoxicity (1 µM): -1.17 ± 1.1%
LDH release cytotoxicity (3.16228 µM): -1.61 ± 0.6%
LDH release cytotoxicity (10 µM): -1.39 ± 0.81%
LDH release cytotoxicity (31.6228 µM): -0.305 ± 0.93%
LDH release cytotoxicity (100 µM): -0.571 ± 0.54%

COC(=O)c1ccccc1C(=O)O [Monomethyl phthalate]
LDH release cytotoxicity (0.031623 µM): -0.688 ± 1.4%
LDH release cytotoxicity (0.1 µM): -1.99 ± 0.55%
LDH release cytotoxicity (0.316228 µM): -2.92 ± 0.47%
LDH release cytotoxicity (1 µM): -2.55 ± 0.86%
LDH release cytotoxicity (3.16228 µM): -1.73 ± 0.51%
LDH release cytotoxicity (10 µM): -1.97 ± 0.5%
LDH release cytotoxicity (31.6228 µM): -0.563 ± 0.24%
LDH release cytotoxicity (100 µM): 0.422 ± 0.27%

CN(C)C(=O)Nc1ccc(Cl)cc1 [Monuron]
LDH release cytotoxicity (0.031623 µM): -1.01 ± 1.8%
LDH release cytotoxicity (0.1 µM): -1.82 ± 0.043%
LDH release cytotoxicity (0.316228 µM): -2.23 ± 0.4%
LDH release cytotoxicity (1 µM): -2.41 ± 0.67%
LDH release cytotoxicity (3.16228 µM): -2.49 ± 0.18%
LDH release cytotoxicity (10 µM): -1.39 ± 0.62%
LDH release cytotoxicity (31.6228 µM): -0.555 ± 1.5%
LDH release cytotoxicity (100 µM): 0.589 ± 0.75%

CCCCC(C#N)(Cn1cncn1)c1ccc(Cl)cc1 (stereo not given) [Myclobutanil]
LDH release cytotoxicity (0.031623 µM): 0.809 ± 1.1%
LDH release cytotoxicity (0.1 µM): 0.0936 ± 0.35%
LDH release cytotoxicity (0.316228 µM): -0.274 ± 0.61%
LDH release cytotoxicity (1 µM): -0.556 ± 0.71%
LDH release cytotoxicity (3.16228 µM): -7.8 ± 0.19%
LDH release cytotoxicity (10 µM): 8.33 ± 0.4%
LDH release cytotoxicity (31.6228 µM): 0.7089 ± 0.0019%
LDH release cytotoxicity (100 µM): 7.68 ± 2.1%

C=CC(=C)CCC=C(C)C [Myrcene]
LDH release cytotoxicity (0.031623 µM): -1.27 ± 1.6%
LDH release cytotoxicity (0.1 µM): -2.39 ± 1%
LDH release cytotoxicity (0.316228 µM): -2.35 ± 0.3%
LDH release cytotoxicity (1 µM): -1.45 ± 0.82%
LDH release cytotoxicity (3.16228 µM): -1.74 ± 1.4%
LDH release cytotoxicity (10 µM): -1.93 ± 0.083%
LDH release cytotoxicity (31.6228 µM): -1.8 ± 0.49%
LDH release cytotoxicity (100 µM): 0.279 ± 0.4%

C=CC(=O)NCNC(=O)C=C [N,N'-Methylenebisacrylamide]
LDH release cytotoxicity (0.03162 µM): -0.744 ± 0.34%
LDH release cytotoxicity (0.1 µM): -0.797 ± 0.92%
LDH release cytotoxicity (0.3162278 µM): -0.644 ± 0.19%
LDH release cytotoxicity (1 µM): -1.4 ± 0.16%
LDH release cytotoxicity (3.16228 µM): -0.3 ± 1.1%
LDH release cytotoxicity (10 µM): -0.328 ± 0.92%
LDH release cytotoxicity (31.6228 µM): -0.405 ± 0.65%
LDH release cytotoxicity (100 µM): 1.88 ± 0.48%

Cc1ccc(N(C)C)cc1 [N,N,4-Trimethylaniline]
LDH release cytotoxicity (0.03162 µM): -1.35 ± 0.18%
LDH release cytotoxicity (0.1 µM): -2.34 ± 0.1%
LDH release cytotoxicity (0.3162278 µM): -1.31 ± 0.2%
LDH release cytotoxicity (1 µM): -1.01 ± 0.47%
LDH release cytotoxicity (3.16228 µM): -1.56 ± 1.1%
LDH release cytotoxicity (10 µM): -0.631 ± 0.84%
LDH release cytotoxicity (31.6228 µM): 0.0145 ± 0.88%
LDH release cytotoxicity (100 µM): 1.9 ± 0.59%

CCN(CC)c1ccccc1 [N,N-Diethylaniline]
LDH release cytotoxicity (0.03162 µM): -1.55 ± 0.24%
LDH release cytotoxicity (0.1 µM): -1.44 ± 0.47%
LDH release cytotoxicity (0.3162278 µM): -1.37 ± 0.23%
LDH release cytotoxicity (1 µM): -1.59 ± 0.4%
LDH release cytotoxicity (3.16228 µM): -0.839 ± 0.86%
LDH release cytotoxicity (10 µM): -1.07 ± 0.4%
LDH release cytotoxicity (31.6228 µM): -0.362 ± 0.47%
LDH release cytotoxicity (100 µM): 0.493 ± 0.011%

CCN(CC)CCO [N,N-Diethylethanolamine]
LDH release cytotoxicity (0.03162 µM): -0.085 ± 0.14%
LDH release cytotoxicity (0.1 µM): -0.79 ± 0.26%
LDH release cytotoxicity (0.3162278 µM): -0.301 ± 0.27%
LDH release cytotoxicity (1 µM): -0.496 ± 0.54%
LDH release cytotoxicity (3.16228 µM): -0.856 ± 0.15%
LDH release cytotoxicity (10 µM): -0.12 ± 0.4%
LDH release cytotoxicity (31.6228 µM): 0.244 ± 0.28%
LDH release cytotoxicity (100 µM): 1.74 ± 0.11%

CN(C)c1ccccc1 [N,N-Dimethylaniline]
LDH release cytotoxicity (0.030516 µM): -0.91 ± 0.26%
LDH release cytotoxicity (0.0965 µM): -1.79 ± 0.17%
LDH release cytotoxicity (0.30516 µM): -1.99 ± 0.44%
LDH release cytotoxicity (0.965 µM): -2.41 ± 0.19%
LDH release cytotoxicity (3.0515979 µM): -1.849 ± 0.013%
LDH release cytotoxicity (9.65 µM): -1.69 ± 0.57%
LDH release cytotoxicity (30.516 µM): -2.11 ± 1.2%
LDH release cytotoxicity (96.5 µM): -0.103 ± 1.2%

CCCCCCCCCC[N+](C)(C)[O-] [N,N-Dimethyldecylamine oxide]
LDH release cytotoxicity (0.031623 µM): -1.68 ± 1.2%
LDH release cytotoxicity (0.1 µM): -2.43 ± 1.6%
LDH release cytotoxicity (0.316228 µM): -2.73 ± 1.6%
LDH release cytotoxicity (1 µM): -2 ± 1.5%
LDH release cytotoxicity (3.16228 µM): -2.26 ± 0.2%
LDH release cytotoxicity (10 µM): -2.07 ± 0.077%
LDH release cytotoxicity (31.6228 µM): -0.853 ± 1%
LDH release cytotoxicity (100 µM): 1.25 ± 0.8%

CN(C)C=O [N,N-Dimethylformamide]
LDH release cytotoxicity (0.03162 µM): -0.983 ± 1%
LDH release cytotoxicity (0.1 µM): -2.55 ± 0.58%
LDH release cytotoxicity (0.3162278 µM): -1.61 ± 0.38%
LDH release cytotoxicity (1 µM): -2.12 ± 0.24%
LDH release cytotoxicity (3.16228 µM): -2.02 ± 0.55%
LDH release cytotoxicity (10 µM): -1.22 ± 0.21%
LDH release cytotoxicity (31.6228 µM): -0.581 ± 0.99%
LDH release cytotoxicity (100 µM): 0.434 ± 0.12%

CCCCCCCCN(C)C [N,N-Dimethyloctylamine]
LDH release cytotoxicity (0.031939 µM): -1.23 ± 0.93%
LDH release cytotoxicity (0.101 µM): -0.78 ± 0.02%
LDH release cytotoxicity (0.31939 µM): -2.01 ± 1.1%
LDH release cytotoxicity (1.01 µM): -1.97 ± 1.2%
LDH release cytotoxicity (3.1939004 µM): -1.09 ± 0.4%
LDH release cytotoxicity (10.1 µM): -1.35 ± 0.46%
LDH release cytotoxicity (31.939 µM): -0.557 ± 0.49%
LDH release cytotoxicity (101 µM): 2.22 ± 0.066%
